Assay results taken from patent US12419862B2, “Use of a cathepsin s inhibitor against the formation of anti-drug antibodies” (Hoffmann-La Roche Inc., priority 2018, dated 2025).

Legend:
[1] = system: adalimumab-specific IgG response; test: ADA against adalimumab in hIgG1 Tg mice over time, ELISA (Example 3, 63 days); assay type: in vivo, C57BL/6-Tg (hIgG1,k,l) mice; details: 40 mg/kg/day via food admix from one day before first immunization until day 28, blood samples to day 56, vs vehicle
Method: 15-week-old female mice C57BL/6-Tg (hIgG1,k,l) were purchased from Taconic (Denmark) and housed at the animal facilities in room with air-conditioned under a 12 hours light/dark cycle in macrolon boxes with enriched environment and free access to water and food. 7×10 μg of Humira (Adalimumab, Abbvie Germany GmbH) were injected at day 0, 4, 7, 11, 14, 18 and 21 subcutaneously in the right flank or the left flank alternatively. The dosage of (2S,4R)-4-[4-(1-methyl-1H-pyrazol-4-yl)-2-trifluoromethyl-benzenesulfonyl]-1-(1-trifluoromethyl-cyclopropanecarbonyl)-pyrrolidine-2-carboxylic acid (1-cyano-cyclopropyl)-amide consumption was 40 mg/kg/day. (2S,4R)-4-[4-(1-methyl-1H-pyrazol-4-yl)-2-trifluoromethyl-benzenesulfonyl]-1-(1-trifluoromethyl-cyclopropanecarbonyl)-pyrrolidine-2-carboxylic acid (1-cyano-cyclopropyl)-amide was given via food admix (Ssniff Spezialdiäten, Germany) daily from one day before the first Humira immunization until day 28. […]
Nunc Maxisorp flat-bottom 96 well ELISA plates were coated with 100 μl per well of Humira or CEA-PGLALA respectively at 5 μg/mL in NaHCO3100 mM buffer overnight at +4° C. […] 100 μl of substrate P-nitrophenyl phosphate ready to use (Life Technologies, Cat no 002212) were added per well and after 10 min incubation at room temperature, the OD at 405 nm was read as an end-point measurement with a Versamax ELISA reader.

[2] = system: TCRβ+CD8+ T cells and NK1.1+ NKp46+ NK cells; test: PD effect of CEA-IL2v in blood, flow cytometry of CD8 T cells and NK cells (Example 5); assay type: in vivo; details: mice of Example 4; cathepsin S inhibitor 40 mg/kg/day vs vehicle
Method: 15-week-old mice C57BL/6-Tg (hIgG1,k,l) and C57BL/6 wild type mixed gender were purchased from Taconic (Denmark) and housed at the animal facilities in room with air-conditioned under a 12 hours light/dark cycle in macrolon boxes with enriched environment and free access to water and food. 7×10 μg of CEA-IL2v (Batch no GLI0144-01) were injected at day 0, 4, 7, 11, 14, 18 and 21 for the primary response, and at day 49, 53, 56 and 60 for the memory response. The CEA-112v injections were done subcutaneously in the right flank or the left flank alternatively. The dosage of (2S,4R)-4-[4-(1-methyl-1H-pyrazol-4-yl)-2-trifluoromethyl-benzenesulfonyl]-1-(1-trifluoromethyl-cyclopropanecarbonyl)-pyrrolidine-2-carboxylic acid (1-cyano-cyclopropyl)-amide consumption was 40 mg/kg/day. […]
From Example 4, 50 μl of lithium heparin whole blood were transferred into a 5 ml polystyrene round-bottom tubes (BD Falcon, Cat. no 352058) and 2 ml of freshly prepared 1× Pharm Lyse™ lysing buffer (BD Bioscience, Cat. no 555899) with UltraPur™ distilled water (Invitrogen, Cat. no 10977-035) were added. […] Data were acquired with the BD FACSDiva software v8.0 on BD LSRFortessa™ cytometer and analyzed with FlowJo™ V10.

Cn1cc(-c2ccc(S(=O)(=O)[C@@H]3C[C@@H](C(=O)NC4(C#N)CC4)N(C(=O)C4(C(F)(F)F)CC4)C3)c(C(F)(F)F)c2)cn1 [cathepsin S inhibitor, (2S,4R)-4-[4-(1-methyl-1H-pyrazol-4-yl)-2-trifluoromethyl-benzenesulfonyl]-1-(1-trifluoromethyl-cyclopropanecarbonyl)-pyrrolidine-2-carboxylic acid (1-cyano-cyclopropyl)-amide]
ADA to adalimumab (adalimumab-specific IgG) over time [1]: reduces ADA to adalimumab | Effect on CEA-IL2v pharmacology (percentages of CD8 T cells and NK cells in blood) [2]: CEA-112v pharmacology is preserved
